Measurements: patent US20050118310A1, “Formulations of compounds derived from natural sources and their use with irradiation for food preservation” (priority 2001, published 2005)
Where “and” joins values, the source holds several entries; their conditions need not be identical. Equal entries are not always repeated. Marks after values point to notes of the source that are not given here.

Columns and labels:
E. coli [1] = assay: MIC (D10 %) of active compounds in ground beef, E. coli; format: cell-based, Escherichia coli (ATCC 25922); conditions: non-irradiated ground beef, 10^5 CFU/g, stored at 4° C. for 24 hours; % w/w or v/w
Protocol: (§1) Escherichia coli (ATCC 25922) and Salmonella typhi (ATCC 19430) were obtained from the American Type Culture Collection (Rockville, Md., USA) and maintained at −80° C. in Tryptic Soy Broth (TSB; Difco Laboratory, Detroit, Mich.) containing glycerol (10%; v/v). Before each experiment, stock cultures were subcultured through two consecutive 24 h growth cycles in TSB at 35° C. to obtain working cultures containing approximately 10^9 UCF/ml for E. coli and S. typhi.
(§2) Samples were homogenised for 2 min in sterile peptone water (0.1%) using a Lab-blender 400 stomacher (Laboratory Equipment, London, UK). From this mixture, serial dilutions were prepared and appropriate ones were pour-plated in tryptic soy agar (TSA) (Difco, Laboratories, Detroit, Mich., USA) and incubated at 35° C., 24 hours for the numeration of E. coli and S. typhi.
(§3) D10 deteriiination: The kinetics of bacteria destruction by irradiation with or without the active compounds and under different packaging conditions was evaluated by linear regression. Bacterial counts (log CFU/ml) were plotted against irradiation doses or compound concentrations and the D10 values were calculated using SigmaPlot program. Statistical analysis was done using SPSS program. The Duncan test was used with a probability of 0.05.
(§4) The MIC values for the active compounds were determined on the basis of their antibacterial effectiveness in meat. Concentrations retained were those to reduce by 1 log CFU the population of E. coli or S. typhi in ground beef. Ground beef samples weighing 200 g were contaminated with working cultures of E. coli or S. typhi to obtain a final concentration of 10^5 CFU/g. The ground beef samples containing micro-organisms was mixed during 3 minutes at medium speed in a 4L-conmmercial blender (Waring Products, New Hartford, Col., USA) and different concentrations of the active compounds were incorporated, followed by another 3 minutes period mixing. Sterile petri plates (60×15 mm) were filled with ground beef samples containing micro-organisms and different concentrations of active compounds in portion of 25 g each and stored at 4° C. for 24 hours.
(§5) In addition to the above compounds, minimal concentrations of different types of commercial Herbalox® and Duralox® required to reduce by 1 log the bacterial population of E. coli in ground beef were evaluated. […] However, an estimation of the minimal concentration was calculated using the slope of the curve.

[2] = test system: Six pathogenic and spoilage bacteria, commonly found in meat and meat products; assay: MIC in artificial culture media (1 log reduction); format: cell-based
Protocol: The concentration ot each active compound added to the meat samples was based on results obtained in a previous experiment. These concentrations represent the minimum inhibitory concentrations (MIC) of the active compounds required to be present in artificial culture media in order to reduce by 1 log the number of bacteria in culture. Six pathogenic and spoilage bacteria, commonly found in meat and meat products, were tested. […] The concentration used for carnosine (1.0%) was selected from the literature (Sebranek, 1999). The concentrations of BHA (0.01%), BHT (0.01%), EDTA (100 ppm), and tetrasodium pyrophosphate (0.1%) corresponded to the concentrations recommended by the Canadian Food Inspection Agency (CFIA).
This value was detennined by testing six pathogenic and spoilage bacteria, commonly found in meat and meat products.

E. coli [3] = assay: Irradiation sensitivity of E. coli in chicken breast; format: cell-based, Escherichia coli (ATCC 25922); conditions: trans-cinnamaldehyde 0.050%, thymol 0.038%, tetrasodium pyrophosphate 0.003%, carvacrol 0.029%; for D10(kGy) / Increase in Sensitivity: chicken breast; for D10(kGy): 4° C.; for Increase in Sensitivity: vs control
S. typhi [4] = assay: Irradiation sensitivity of S. typhi in chicken breast; format: cell-based, Salmonella typhi (ATCC 19430); conditions: for D10(kGy) / Increase in Sensitivity: chicken breast; for D10(kGy): 4° C.; for D10(kGy) / irradiation dose necessary to completely eliminate S. typhi from the chicken breast / Increase in Sensitivity: trans-cinnamaldehyde 0.030%, tetrasodium pyrophosphate 0.003%, carvacrol 0.038%, thymol […]; for factor by which the effect was reduced in the chicken breast: concentration of 1/30 of the MIC value in ground beef, compared with ground beef at MIC; for Increase in Sensitivity: vs control
S. typhi [5] = assay: MIC (D10 %) of active compounds in ground beef, S. typhi; format: cell-based, Salmonella typhi (ATCC 19430); conditions: non-irradiated ground beef, 10^5 CFU/g, stored at 4° C. for 24 hours; % w/w or v/w
Protocol: as §1, §2, §3, §4, §5

E. coli [6] = assay: Shelf life study, E. coli in ground beef irradiated at 0.30 kGy; format: cell-based, Escherichia coli; conditions: stored at 4° C., trans-cinnamaldehyde […], thymol 1.15%, carvacrol […]
Protocol: Irradiation treatments of ground beef samples for D10 and shelf life determination were performed using UC-15B irradiator (MDS-Nordion International Inc., Kanata, ON, Canada) equipped with a ^60 Co source at a dose rate of 14.42 kGy/h). Irradiation doses used for D10 determination were ranged from 0.25 to 0.55 kGy for E. coli, from 0.50 to 2.0 kGy for S. typhi, and from 0.5 to 2.5 kGy for the mixture of indigenous microorganisms of ground beef. The shelf life study was performed on samples irradiated at 0.30, 0.85, and 1.75 kGy for E. coli, S. typhi, and the mixture of indigenous microorganisms of ground beef, respectively. For each active compound concentration tested, a group of non-irradiated samples sened as a control. For D10 determination, samples were analysed immediately after irradiation. For shelf life studies, samples were stored at 4° C. and analysed periodically.
Microbial analysis was performed by homogenising the samples for 2 mn in sterile peptone water (0.1%) using a Lab-blender 400 stomacher (Laboratory Equipment, London, UK). From this mixture, serial dilutions were prepared and appropriate ones were pour-plated in tryptic soy agar (TSA) (Difco, Laboratories, Detroit, Mich., USA) and incubated at 35° C., 24 hours for the numeration of E. coli and S. typhi. For the ground beef broth, the incubation was performed on Plate Count Agar (PCA; Difco) at 35° C. for 48 h for the numeration mesophilic bacteria, and at 7° C. for 10 days for the numeration of psychrotrophic bacteria. Enterobacteriaceae were numerated on Violet Red Bile Glucose Agar (VRBGA; Difco) 35° C. for 48 hours.
A shelf life study was undertaken to evaluate the radiation sensitivity during refrigerated storage conditions. Ground beef samples contaminated with E. coli, S. typhi, or a mixture of indigenous micro-organisms were irradiated in presence or absence of selected active compounds. […]

`Cc1ccc(C(C)C)c(O)c1` [Thymol, thymol] was tested, and the “D10 (%): minimal concentration of active compound required to reduce E. coli population by 1 log in ground beef” value (E. coli [1]) was 1.14 ± 0.05^a %, the “Mean values of MIC (concentration required in artificial culture media to reduce by 1 log the number of bacteria)” value [2] was 0.1% and the “D10(kGy)” value (E. coli [3]) was 0.131 ± 0.007^b kGy. For the same compound, the “irradiation dose necessary to completely eliminate E. coli from the chicken breast” value (E. coli [3]) was “around 0.75 kGy”, the “Increase in Sensitivity” value (E. coli [3]) was 9.7% and the “D10(kGy)” value (S. typhi [4]) was 0.570 ± 0.065^b kGy. For the same compound, the “factor by which the effect was reduced in the chicken breast” value (from here on “factor by which the effect was reduced”) (S. typhi [4]) was 5, the “irradiation dose necessary to completely eliminate S. typhi from the chicken breast” value (S. typhi [4]) was 2.8 kGy and the “Increase in Sensitivity” value (S. typhi [4]) was 11.4%. The “D10 (%): minimal concentration of active compound required to reduce S. typhi population by 1 log in ground beef” value (S. typhi [5]) was 1.60 ± 0.00^ab % and the “days of storage after which complete inhibition was observed” value (E. coli [6]) was 15 days.
`Cc1ccc(C(C)C)cc1O` [Carvacrol, carvacrol] was tested, and the “D10 (%): minimal concentration of active compound required to reduce E. coli population by 1 log in ground beef” value (E. coli [1]) was 0.88 ± 0.12^a %, the “Mean values of MIC (concentration required in artificial culture media to reduce by 1 log the number of bacteria)” value [2] was 0.125% and the “D10(kGy)” value (E. coli [3]) was 0.145 ± 0.003^c kGy. For the same compound, the “irradiation dose necessary to completely eliminate E. coli from the chicken breast” value (E. coli [3]) was 0.72 kGy, the “Increase in Sensitivity” value (E. coli [3]) was 0% and the “D10(kGy)” value (S. typhi [4]) was 0.532 ± 0.071^b kGy. For the same compound, the “factor by which the effect was reduced” value (S. typhi [4]) was 4, the “irradiation dose necessary to completely eliminate S. typhi from the chicken breast” value (S. typhi [4]) was 2.3 kGy and the “Increase in Sensitivity” value (S. typhi [4]) was 17.3%. The “D10 (%): minimal concentration of active compound required to reduce S. typhi population by 1 log in ground beef” value (S. typhi [5]) was 1.15 ± 0.02^a % and the “days of storage after which complete inhibition was observed” value (E. coli [6]) was 50 days.
In the case of `O=C/C=C/c1ccccc1` [Trans-cinnamaldehyde, trans-cinnamaldehyde], the “D10 (%): minimal concentration of active compound required to reduce E. coli population by 1 log in ground beef” value (E. coli [1]) is reported as 1.57 ± 0.10^b %, the “Mean values of MIC (concentration required in artificial culture media to reduce by 1 log the number of bacteria)” value [2] is reported as 0.25% and 0.025% and the “D10(kGy)” value (E. coli [3]) is reported as 0.098 ± 0.006^a kGy. The “irradiation dose necessary to completely eliminate E. coli from the chicken breast” value (E. coli [3]) was 0.75 kGy, the “Increase in Sensitivity” value (E. coli [3]) was 32.4% and the “D10(kGy)” value (S. typhi [4]) was 0.341 ± 0.018^a kGy. For the same compound, the “factor by which the effect was reduced” value (S. typhi [4]) was 1.5, the “irradiation dose necessary to completely eliminate S. typhi from the chicken breast” value (S. typhi [4]) was 1.4 kGy and the “Increase in Sensitivity” value (S. typhi [4]) was 47.0%. The “D10 (%): minimal concentration of active compound required to reduce S. typhi population by 1 log in ground beef” value (S. typhi [5]) was 0.89 ± 0.03^a % and the “days of storage after which complete inhibition was observed” value (E. coli [6]) was 15 days.
